From patent US20090247599A1, “METHODS OF TREATING CELL PROLIFERATIVE DISORDERS USING A COMPRESSED TEMOZOLOMIDE DOSING SCHEDULE” (Schering Corporation, priority 2005, published 2009) come the findings set out here.

Assay [1] concerns LOX human melanoma xenograft tumors. In words: LOX xenograft tumor growth in SCID mice. The assay is classed as in vivo. The following applies: i.p., 72 mg/kg total dose. As to the method:
(§1) In brief, female athymic nude mice or female SCID mice (4-6 week old) from Charles River Laboratories were maintained in a VAF-barrier facility. Animal procedures were performed in accordance with the rules set forth in the N.I.H. guide for the care and use of laboratory animals.
(§2) DAOY human medulloblastoma cells (5×10^6), U373 human glioma cells (5×10^6), LOX human melanoma cells (5×10^5), and A375 human melanoma cells (5×10^6) were inoculated subcutaneously in the right flank of the animal (LOX in SCID mice; DAOY, U373, and A375 in nude mice). To facilitate in vivo growth, Matrigel was mixed with DAOY and A375 cells (50%) before inoculation. When tumor volumes were approximately 100 mm^3, animals were randomized and grouped (n=10 LOX, DAOY, and A375; n=9 U373). Tumor volumes and body weight were measured twice weekly using Labcat™ computer application (Innovative Programming Associates, N.J.). Tumor volumes were calculated by the formula (W×L×H)×π×⅙. TMZ was administered by intraperitoneal injections with 20% HPβCD (containing 1% DMSO) as vehicle.
Mice bearing xenograft tumors of LOX human melanoma cells, a low MGMT level cell line, were treated with TMZ using two different schedules. The same total dose was administered evenly divided over the course of either: (i) 4 or (ii) 12 days. […]

For assay [2], the system named is U373 human glioma xenograft tumors. Description: U373 xenograft tumor growth in nude mice. Particulars: i.p. Type of assay: in vivo. As to the method: as §1, §2
Mice bearing xenograft tumors of U373 human glioma cells, a high MGMT level cell line, were treated with TMZ for 5 consecutive days (day 1 through day 5) over a cycle that is at least a 28-day cycle. […]

Take `Cn1nnc2c(C(N)=O)ncn2c1=O` [TMZ, 3,4-dihydro-3-methyl-4-oxoimidazo[5,1-d]-as-tetrazine-8-carboxamide]: the TGI in assay [1] (4-day treatment schedule (Day 1-4)) amounted to 88%; in assay [1] (12-day schedule (Day 1-12)) it was 50%; in assay [2] (35 mg/kg for 5 consecutive days (175 mg/kg total)) it was 100%; in assay [2] (70 mg/kg for 5 consecutive days (350 mg/kg total)), 113%.
